Source: publication PMC3380923, “Structure Analysis of Entamoeba histolytica DNMT2 (EhMeth)” (PLoS ONE, 2012)

Target: T1, EhMeth (Entamoeba histolytica, UniProt Q6Q386)
T1 construct: gene meth; GST fusion from pGEX6-P3 in E. coli BL21(DE3), GST cleaved off with PreScission protease; one molecule per asymmetric unit
T1 sequence (Q6Q386 1-322): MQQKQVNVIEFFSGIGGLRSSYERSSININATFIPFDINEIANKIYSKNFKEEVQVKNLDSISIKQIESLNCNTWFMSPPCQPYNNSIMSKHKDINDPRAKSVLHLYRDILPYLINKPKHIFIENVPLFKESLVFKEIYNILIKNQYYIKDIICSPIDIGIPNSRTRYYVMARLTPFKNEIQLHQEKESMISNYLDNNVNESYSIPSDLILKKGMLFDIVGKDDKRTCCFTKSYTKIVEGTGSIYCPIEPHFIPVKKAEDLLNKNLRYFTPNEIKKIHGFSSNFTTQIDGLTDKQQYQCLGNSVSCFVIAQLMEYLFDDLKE
Assay: X-ray crystal structure, […] Å
Settings: co-crystallised with 150x molar excess AdoHcy, pH 6.5, 20 °C; cofactor-binding pocket

Nc1ncnc2c1ncn2[C@@H]1O[C@H](CSCC[C@H](N)C(=O)O)[C@@H](O)[C@H]1O [AdoHcy]
X-ray crystal structure, 2.15 Å: the crystal structure of the binary complex comprising EhMeth and AdoHcy is presented
